Experimental data from article PMC5748644, “Synthesis and In Vitro Cytotoxicity of the 4-(Halogenoanilino)-6-bromoquinazolines and Their 6-(4-Fluorophenyl) Substituted Derivatives as Potential Inhibitors of Epidermal Growth Factor Receptor Tyrosine Kinase” (Pharmaceuticals, 2017).

biological target: T1, epidermal growth factor receptor tyrosine kinase (EGFR-TK) (Homo sapiens, UniProt P00533); test: ELISA kinase assay, poly(Glu,Tyr) phosphorylation, anti-phosphotyrosine antibody, […] nm; assay type: biochemical
T1 construct: commercial purified EGFR (Sigma-Aldrich), called both purified Epidermal Growth Factor Receptor and purified recombinant EGFR tyrosine kinase
T1 sequence (P00533 25-1210): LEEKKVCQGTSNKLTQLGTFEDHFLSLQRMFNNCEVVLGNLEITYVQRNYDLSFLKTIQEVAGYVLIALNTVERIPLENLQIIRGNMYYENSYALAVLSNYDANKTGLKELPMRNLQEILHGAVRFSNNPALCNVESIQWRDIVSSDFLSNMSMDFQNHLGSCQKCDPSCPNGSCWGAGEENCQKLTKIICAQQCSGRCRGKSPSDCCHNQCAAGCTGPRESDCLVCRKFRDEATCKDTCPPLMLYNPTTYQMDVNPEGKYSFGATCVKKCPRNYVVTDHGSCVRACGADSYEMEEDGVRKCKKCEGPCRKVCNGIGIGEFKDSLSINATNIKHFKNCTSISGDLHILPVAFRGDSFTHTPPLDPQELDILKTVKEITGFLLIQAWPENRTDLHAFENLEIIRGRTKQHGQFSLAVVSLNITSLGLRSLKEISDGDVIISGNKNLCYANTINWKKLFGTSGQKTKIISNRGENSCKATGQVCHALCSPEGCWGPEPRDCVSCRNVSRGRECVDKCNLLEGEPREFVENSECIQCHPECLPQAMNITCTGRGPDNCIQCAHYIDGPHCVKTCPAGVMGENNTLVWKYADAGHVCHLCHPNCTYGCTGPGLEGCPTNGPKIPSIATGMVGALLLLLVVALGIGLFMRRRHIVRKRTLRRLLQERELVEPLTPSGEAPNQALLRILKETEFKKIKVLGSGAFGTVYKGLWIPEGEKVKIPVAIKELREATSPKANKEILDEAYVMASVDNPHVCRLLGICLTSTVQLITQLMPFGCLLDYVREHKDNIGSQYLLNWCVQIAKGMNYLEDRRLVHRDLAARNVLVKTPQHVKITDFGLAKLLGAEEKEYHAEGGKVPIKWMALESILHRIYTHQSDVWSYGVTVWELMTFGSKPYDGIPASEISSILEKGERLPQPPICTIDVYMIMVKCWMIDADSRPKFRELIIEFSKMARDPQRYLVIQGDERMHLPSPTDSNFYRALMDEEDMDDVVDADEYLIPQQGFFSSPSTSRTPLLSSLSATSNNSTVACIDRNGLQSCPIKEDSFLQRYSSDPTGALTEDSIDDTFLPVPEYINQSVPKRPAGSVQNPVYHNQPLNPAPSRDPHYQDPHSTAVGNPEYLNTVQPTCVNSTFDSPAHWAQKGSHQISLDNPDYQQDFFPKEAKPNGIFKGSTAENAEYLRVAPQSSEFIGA

Which IC50 does the source give for `Fc1ccccc1Nc1nc(-c2ccc(Cl)cc2)nc2ccc(Br)cc12` [3g, 6-Bromo-2-(4-chlorophenyl)-N-(2-fluorophenyl)quinazolin-4-amine] here?
The IC50 was 70 nM.

`Fc1ccc(Nc2nc(-c3ccc(Cl)cc3)nc3ccc(Br)cc23)c(F)c1` [3l, 6-Bromo-2-(4-chlorophenyl)-N-(2,4-difluorophenyl)quinazolin-4-amine] was tested. Which IC50 did it give?
The IC50 was 37.7 nM.

With `Fc1ccc(-c2ccc3nc(-c4ccc(Cl)cc4)nc(Nc4ccc(F)cc4F)c3c2)cc1` [4l, [2-(4-Chlorophenyl)-6-(4-fluorophenyl)quinazolin-4-yl]-2,4-difluorophenylamine] as the compound, how does the IC50 read?
Its IC50 is 59.2 nM.
